Among the data in PubChem BioAssay AID250 (DTP/NCI, 2004) are T/C values, retold here.

The test system of this experiment is BDF1 mice, L1210 leukemia sc, survival T/C. Briefly: NCI In Vivo Anticancer Drug Screen. Data for tumor model L1210 Leukemia (subcutaneous) in B6D2F1 (BDF1) mice. Particulars: endpoint: median survival time, higher = longer survival. The procedure:
The antitumor activity of compounds was measured in mice bearing transplantable tumors. Survival or tumor size were measured and the results are expressed as the measurement made in the treated group (T) divided by the measurement made in the vehicle treated control group (C). The tumor model used in this assay is L1210 Leukemia (subcutaneous) in B6D2F1 (BDF1) mice

Setting [1] is: dose: 39.0 mg/kg/injection, schedule: Q01DX Z (sc), vehicle: saline.
Setting [2] is: dose: 65.0 mg/kg/injection, schedule: Q01DX Z (sc), vehicle: methylcellulose (MC).
Where [3] appears, read: dose: 108.0 mg/kg/injection, schedule: Q01DX Z (sc), vehicle: methylcellulose (MC).
Where [4] appears, read: dose: 180.0 mg/kg/injection, schedule: Q01DX Z (sc), vehicle: methylcellulose (MC).
Where [5] appears, read: dose: 300.0 mg/kg/injection, schedule: Q01DX Z (sc), vehicle: methylcellulose (MC).
Where [6] appears, read: dose: 500.0 mg/kg/injection, schedule: Q01DX Z (sc), vehicle: methylcellulose (MC).

Values joined by “and” are separate entries in the source; they are usually repeats but may differ in a detail not shown here. Equal values may be shown once. Inconclusive results and toxic doses are left out.

On to `Nc1n[nH]c(N)n1`, for which the T/C by setting is: (dose: 125.0 mg/kg/injection, schedule: Q03HX024 (sc), vehicle: none) 110 % of control; (dose: 180.0 mg/kg/injection, schedule: Q03HX024 (ip), vehicle: water) 116 % of control; (dose: 180.0 mg/kg/injection, schedule: Q03HX024 (sc), vehicle: water) 122 % of control; (dose: 250.0 mg/kg/injection, schedule: Q03HX024 (sc), vehicle: none) 120 % of control; (dose: 250.0 mg/kg/injection, schedule: Q#A X018 (sc), vehicle: none) 120 % of control; (dose: 432.0 mg/kg/injection, schedule: Q01DX Z (sc), vehicle: water) 104 % of control. The T/C (dose: 500.0 mg/kg/injection, schedule: Q03HX024 (ip), vehicle: water) is 177 % of control; the T/C (dose: 500.0 mg/kg/injection, schedule: Q03HX024 (sc), vehicle: water) is 166 % of control; the T/C (dose: 500.0 mg/kg/injection, schedule: Q04DX003 (sc), vehicle: none) was 110 % of control; the T/C (dose: 500.0 mg/kg/injection, schedule: Q#A X018 (sc), vehicle: none) is 160 % of control; the T/C (dose: 720.0 mg/kg/injection, schedule: Q01DX Z (sc), vehicle: water) was 109 % of control; the T/C (dose: 1000.0 mg/kg/injection, schedule: Q03HX024 (sc), vehicle: none) is 110 % of control. For the same compound, the T/C (dose: 1000.0 mg/kg/injection, schedule: Q04DX003 (sc), vehicle: none) is 110 % of control; the T/C (dose: 1000.0 mg/kg/injection, schedule: Q08DX009 (sc), vehicle: none) is 150 % of control; the T/C (dose: 1000.0 mg/kg/injection, schedule: Q#A X018 (sc), vehicle: none) was 100 % of control; the T/C (dose: 2000.0 mg/kg/injection, schedule: Q01DX Z (sc), vehicle: water) was 150 % of control; the T/C (dose: 2000.0 mg/kg/injection, schedule: Q04DX003 (sc), vehicle: none) was 115 % of control; the T/C (dose: 2000.0 mg/kg/injection, schedule: Q#A X018 (sc), vehicle: none) was 90 % of control. Further, the T/C reads like this: (dose: 4000.0 mg/kg/injection, schedule: Q04DX003 (sc), vehicle: none) 120 % of control; (dose: 4000.0 mg/kg/injection, schedule: Q08DX009 (sc), vehicle: none) 150 % of control.
As for `COCCCN=C(N)c1ccc(NC(=O)c2ccc(C(=O)Nc3ccc(C(N)=NCCCOC)cc3)cc2)cc1`, the T/C is 158 % of control (dose: 8.4 mg/kg/injection, schedule: Q01DX Z (sc), vehicle: saline) and 100 % of control under setting [1].
As to `N[C@H](C(=O)O)[C@H]1ON=C(Cl)[C@@H]1O`, the T/C runs as follows: (dose: 8.0 mg/kg/injection, schedule: Q01DX009 (sc), vehicle: saline) 111 % of control; (dose: 32.0 mg/kg/injection, schedule: Q01DX009 (sc), vehicle: saline) 150 % of control and 156 % of control; (dose: 64.0 mg/kg/injection, schedule: Q01DX009 (sc), vehicle: saline) 153 % of control and 156 % of control; (dose: 128.0 mg/kg/injection, schedule: Q01DX009 (sc), vehicle: saline) 156 % of control and 160 % of control; (dose: 256.0 mg/kg/injection, schedule: Q01DX009 (sc), vehicle: saline) 157 % of control and 176 % of control; (dose: 512.0 mg/kg/injection, schedule: Q01DX009 (sc), vehicle: saline) 176 % of control. Besides, where the note is “dose: 1024.0 mg/kg/injection, schedule: Q01DX009 (sc), vehicle: saline”, the T/C was 177 % of control.
For the compound `CN(N=O)C(=O)Nc1c[nH]c(=O)[nH]c1=O`, the T/C (dose: 14.0 mg/kg/injection, schedule: Q01DX Z (sc), vehicle: saline) was 90 % of control; the T/C (dose: 23.0 mg/kg/injection, schedule: Q01DX Z (sc), vehicle: saline) was 100 % of control; the T/C under setting [1] was 105 % of control; the T/C (dose: 65.0 mg/kg/injection, schedule: Q01DX Z (sc), vehicle: saline) was 95 % of control; the T/C (dose: 108.0 mg/kg/injection, schedule: Q01DX Z (sc), vehicle: saline) is 100 % of control.
Take `CCOC(=O)NP(=O)(N1CC1(C)C)N1CC1(C)C` (configuration not stated): the T/C under setting [2] was 91 % of control; the T/C under setting [3] is 100 % of control; the T/C (dose: 130.0 mg/kg/injection, schedule: Q01DX Z (sc), vehicle: methylcellulose (MC)) was 95 % of control; the T/C under setting [4] was 100 % of control; the T/C (dose: 216.0 mg/kg/injection, schedule: Q01DX Z (sc), vehicle: methylcellulose (MC)) is 100 % of control; the T/C under setting [5] is 100 % of control. Also, the T/C under setting [6] is 100 % of control.
As for `COC(=O)c1[nH]c(=O)[nH]c(=O)c1F`, the T/C by setting is: (dose: 5.0 mg/kg/injection, schedule: Q01DX Z (sc), vehicle: methylcellulose (MC)) 111 % of control; (dose: 10.0 mg/kg/injection, schedule: Q01DX Z (sc), vehicle: methylcellulose (MC)) 158 % of control; (dose: 20.0 mg/kg/injection, schedule: Q01DX Z (sc), vehicle: methylcellulose (MC)) 164 % of control; (dose: 40.0 mg/kg/injection, schedule: Q01DX Z (sc), vehicle: methylcellulose (MC)) 158 % of control; (dose: 80.0 mg/kg/injection, schedule: Q01DX Z (sc), vehicle: methylcellulose (MC)) 152 % of control.
With `ClCCN(CCCl)c1ccc(CCNc2ccnc3cc(Cl)ccc23)cc1`, the T/C reads like this: (dose: 14.0 mg/kg/injection, schedule: Q01DX Z (sc), vehicle: methylcellulose (MC)) 100 % of control; under setting [2], 100 % of control.
On to `COc1ccc(/C=N/NC(N)=S)cc1`, for which the T/C (dose: 39.0 mg/kg/injection, schedule: Q01DX Z (sc), vehicle: methylcellulose (MC)) is 95 % of control; the T/C (dose: 39.0 mg/kg/injection, schedule: Q01DX Z (sc), vehicle: water) is 100 % of control; the T/C under setting [2] was 100 % of control; the T/C (dose: 65.0 mg/kg/injection, schedule: Q01DX Z (sc), vehicle: water) was 100 % of control; the T/C under setting [3] was 100 % of control; the T/C (dose: 108.0 mg/kg/injection, schedule: Q01DX Z (sc), vehicle: water) was 100 % of control. In addition, the T/C reads like this: under setting [4], 95 % of control; (dose: 180.0 mg/kg/injection, schedule: Q01DX Z (sc), vehicle: water) 100 % of control; (dose: 216.0 mg/kg/injection, schedule: Q01DX Z (sc), vehicle: water) 100 % of control; under setting [5], 100 % of control; (dose: 300.0 mg/kg/injection, schedule: Q01DX Z (sc), vehicle: water) 100 % of control; (dose: 360.0 mg/kg/injection, schedule: Q01DX Z (sc), vehicle: water) 111 % of control. In addition, the T/C reads like this: under setting [6], 100 % of control; (dose: 500.0 mg/kg/injection, schedule: Q01DX Z (sc), vehicle: water) 100 % of control; (dose: 600.0 mg/kg/injection, schedule: Q01DX Z (sc), vehicle: water) 105 % of control; (dose: 1000.0 mg/kg/injection, schedule: Q01DX Z (sc), vehicle: water) 111 % of control.
In the case of `O=C(Nc1ccc(C2=NCCCN2)cc1)c1ccc(C(=O)Nc2ccc(C3=NCCCN3)cc2)nc1`, the T/C (dose: 3.0 mg/kg/injection, schedule: Q01DX Z (sc), vehicle: water) is 100 % of control; the T/C (dose: 5.0 mg/kg/injection, schedule: Q01DX Z (sc), vehicle: water) was 100 % of control; the T/C (dose: 8.4 mg/kg/injection, schedule: Q01DX Z (sc), vehicle: water) was 100 % of control; the T/C (dose: 14.0 mg/kg/injection, schedule: Q01DX Z (sc), vehicle: water) is 88 % of control; the T/C (dose: 23.0 mg/kg/injection, schedule: Q01DX Z (sc), vehicle: water) was 100 % of control.
For `COc1cc([C@@H]2c3cc4c(cc3[C@@H](OC3OC5COC(C)OC5C(O)C3O)[C@H]3COC(=O)[C@H]23)OCO4)cc(OC)c1O` (some centres not stated), the T/C reads like this: (dose: 2.0 mg/kg/injection, schedule: Q01DX009 (ip), vehicle: Klucel (hydroxypropylcellulose) (HPC)) 120 % of control; (dose: 8.0 mg/kg/injection, schedule: Q01DX009 (ip), vehicle: Klucel (hydroxypropylcellulose) (HPC)) 160 % of control; (dose: 16.0 mg/kg/injection, schedule: Q01DX009 (ip), vehicle: Klucel (hydroxypropylcellulose) (HPC)) 105 % of control.
